The nature of series [1]: Pharmacokinetics in brains of mice after SC administration. The settings on record: brain; for AUC0-inf (h*ng/g): C57BL/6 mice, SC 3.16 mg/kg; for Cmax / Tmax / half-life: male, C57BL/6, mouse, sc, 3.16 mg/kg.
Series [2] in a line: Pharmacokinetics in plasma of mice after SC administration. The settings on record: male, C57BL/6, mouse, 3.16 mg/kg.
The target in series [3] is 5-HT1A receptor (Homo sapiens (Human), UniProt P08908). Briefly: cell-based. The settings on record: for EC50: 5-HT1A EC50 (nM).
Series [4] relates to Sprague Dawley rats. Briefly: Forced swim test (FST) in rats. Type of series: in vivo, rat. The settings on record: SC, 23.5 h pre-treatment, vs vehicle, in words. On the procedure:
Animals. Male Sprague Dawley rats, aged 8-10 weeks, were used in the experiments. Animals were housed in groups of 2 under controlled temperature (22±3° C.) and relative humidity (30-70%) conditions, with 12-hour light/dark cycles, and with ad libitum food and water. These studies were carried out in strict accordance with the requirements of the Committee for the Purpose of Control and Supervision of Experiments on Animals (CPCSEA), India. All efforts were made to minimize suffering.
Drugs and Drug Administration. Compounds were synthesized as described above. Desipramine HCl was commercially obtained. Test compounds, saline vehicle, and the positive control desipramine were administered subcutaneously (SC), with doses calculated based on the freebase for desipramine and based on the HCl salts for Compounds 22 and 23. Normal saline was used as the vehicle. All compounds were administered at a volume of 5 mL/kg. Test compounds and vehicle were administered 0.5 h after the start of the training swim (Swim 1) and 23.5 h before the test swim (Swim 2). […]
Behavioral scoring was conducted by observers who were blind to the treatment groups. Animals were continuously observed during Swim 2 and the total time spent engaging in the following behaviors was recorded: immobile, swimming, and climbing. […]

In series [5] the target is 5-HT2A receptor (Homo sapiens (Human), UniProt P28223). Description: cell-based. The conditions noted are these: for EC50: 5-HT2A EC50 (nM).
Series [6] concerns C57BL/6 mice. Description: Marble burying test (MBT) in mice. The conditions noted are these: SC 30 min before, 30-minute period, vs vehicle, in words. Type of series: in vivo, mouse. On the procedure: Disclosed compounds produced an anxiolytic-like effect in the marble burying test (MBT) in C57BL/6 mice (FIG. 5).
Animals. Adult male C57BL/6 mice, aged 8-10 weeks (body weight 20-25 g) were used in these experiments. Animals were housed under controlled temperatures and 12-hour light/dark cycles (lights on between 07:00-19:00 h), with ad libitum food and water. The protocol was approved by the Eurofins Advinus Institutional Animal Care and Use Committee. This study was carried out in strict accordance with the recommendations in the Guide for the Care and Use of Laboratory Animals of the National Institutes of Health. All efforts were made to minimize suffering.
Drugs and Drug Administration. Compounds were synthesized as described above. Desipramine HCl was commercially obtained. Test compounds, vehicle, and the positive control desipramine were administered subcutaneously (SC), with doses calculated based on the freebase for desipramine and based on the HCl salts for Compounds 22 and 23. Normal saline was used as the vehicle. […] All compounds were administered 30 minutes prior to the start of behavioral testing. Group size was n=10 per treatment. Marble Burying Test (MBT). […] Mice were handled for about 2 min daily for the 3 days prior to the beginning of the experimental procedure. […] The total number of marbles buried were counted in three 10-minute time bins (total 30 minutes). […]

In series [7] the target is CYP1A2 (Homo sapiens (Human), UniProt P05177). Description: in vitro. The settings on record: both, microsomes, pH 7.4.
The nature of series [8]: in vitro. The conditions noted are these: both, rat, microsomes, rat liver microsomes (RLM), 1 μM test compound, 0.50 mg/mL protein, NADPH; for microsomal CLint: pH 7.4, Intrinsic clearance (Clint); for half-life: pH 7.4, half-life (t1/2). In general terms: Liver microsomes are a subcellular fraction often used to study metabolism.

Entries after “also recorded” stand apart in the source; their conditions may differ. Where only a bound is given, the exact number is not on record here.

The term Cmax denotes the maximum level reached in the sampled fluid or tissue. For orientation: Tmax means the time from dosing to the highest level. As usually defined, the half-life is the time in which the quantity being followed falls by half. What is called AUC(0-inf) is total exposure, with the tail of the curve extrapolated. Read a low AUC(0-inf) as less exposure. As a reminder, the EC50 is the concentration needed to bring the measured effect to its halfway point. Usually inhibition stands for the relative decrease from the control value, in per cent. A higher inhibition goes with a response far below the control. The term microsomal CLint denotes the rate of metabolic loss divided by the concentration.

Sequence of CYP1A2 (P05177 whole entry, looked up): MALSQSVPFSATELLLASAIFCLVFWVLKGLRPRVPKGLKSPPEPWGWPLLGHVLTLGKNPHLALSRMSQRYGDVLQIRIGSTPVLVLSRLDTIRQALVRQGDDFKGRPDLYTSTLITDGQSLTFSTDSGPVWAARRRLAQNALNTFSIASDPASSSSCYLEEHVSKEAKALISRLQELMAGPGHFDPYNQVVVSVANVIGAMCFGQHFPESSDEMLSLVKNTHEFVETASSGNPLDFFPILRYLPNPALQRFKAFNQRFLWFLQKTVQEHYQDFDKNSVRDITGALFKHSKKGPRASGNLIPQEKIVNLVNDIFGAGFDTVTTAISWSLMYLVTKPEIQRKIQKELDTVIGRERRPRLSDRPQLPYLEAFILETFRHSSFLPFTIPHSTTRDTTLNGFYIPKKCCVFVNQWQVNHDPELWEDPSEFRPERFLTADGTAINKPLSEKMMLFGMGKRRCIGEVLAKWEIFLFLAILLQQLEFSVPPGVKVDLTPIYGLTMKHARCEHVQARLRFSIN

Consider `CCCc1cc(OC)c(CC(C)N)cc1OC` (stereo not shown) [Compound 22, 1-(2,5-dimethoxy-4-propylphenyl)propan-2-amine], for which, in series [1], the “AUC0-inf (h*ng/g)” value is 6,440 h*ng/g, the highest level (Cmax) was 1750 ng/g, the time to peak (Tmax) turned out to be 1 h and the half-life is 1.6 h. Moreover, in series [2], the AUC(0-inf) came out at 780 ng·h/mL, the peak level (Cmax) was 253 ng/mL, the time of peak concentration (Tmax) was 0.5 h and the half-life is 1.47 h. For the same compound, in series [3], the “5-HT1A % Act @ Max Conc.” value was determined as 7.71% and the concentration for a half-maximal effect (EC50) was > 10000 nM. Moreover, the “time immobile in the rat forced swim test” value in series [4] was “significant reduction in the time spent immobile; also recorded: antidepressant-like effect”. Further, in series [5], the “5-HT2A % Act @ Max Conc.” value amounted to 103% and the EC50 came out at 0.123 nM. Further, the “total number of marbles buried” value in series [6] is reported as “significant dose-dependent reduction in the total number of marbles buried; also recorded: reduced the number of marbles buried”. The compound also registered an inhibition at 10 µM in series [7] of 46.7%. Moreover, in series [8], the microsomal CLint is 245 µL/min/mg and the half-life came to 0.0942 h.
For the compound `CCCCCc1cc(OC)c(CC(C)N)cc1OC` (stereo not shown) [Compound 23, 1-(2,5-dimethoxy-4-pentylphenyl)propan-2-amine], in series [1], the “AUC0-inf (h*ng/g)” value is on record as 4,610 h*ng/g, the maximum concentration (Cmax) turned out to be 1510 ng/g, the Tmax worked out at 1 h and the half-life was 2.9 h. In series [2], the area under the curve AUC(0-inf) came out at 398 ng·h/mL, the peak level (Cmax) was 173 ng/mL, the Tmax amounted to 0.5 h and the half-life was 1.93 h. Also, in series [3], the “5-HT1A % Act @ Max Conc.” value is listed as 15% and the half-maximal effective concentration (EC50) is > 10000 nM. Also, the “time immobile in the rat forced swim test” value in series [4] was “significant reduction in the time spent immobile; also recorded: antidepressant-like effect”. For the same compound, in series [5], the “5-HT2A % Act @ Max Conc.” value stood at 100% and the concentration for a half-maximal effect (EC50) came out at 1.95 nM. Further, in series [6], the “total number of marbles buried” value is given as “significant dose-dependent reduction in the total number of marbles buried; also recorded: reduced the number of marbles buried”. For the same compound, at 10 µM the inhibition in series [7] was 76.3%. Moreover, in series [8], the microsomal CLint was 76.4 µL/min/mg and the half-life turned out to be 0.302 h.
